The values that follow come from patent US11135185B2, “Uses of curcumin derivative” (Merry Life Biomedical Company, Ltd., priority 2018, dated 2021).

Entries after “also recorded” stand apart in the source; their conditions may differ.

The test system of test [1] is Iba-1 (microglial activation biomarker) in 3×Tg AD transgenic mice. Put plainly: Iba-1 immunofluorescence staining in 3×Tg-AD transgenic mice. The note with it: six-month-old 3×Tg AD mice fed 150 mg/kg for four months, compared to curcumin (FIG. 5). Format: in vivo. The source says: (§1) Triple-transgenic mice as a model of Alzheimer's disease (3×Tg-AD, APP Swedish, MAPT P301L, and PSEN1 M146V) were bred at the laboratory animal center of National Cheng Kung University (NCKU) [Oddo S, Caccamo A, Shepherd J D, Murphy M P, Golde T E, Kayed R, Metherate R, Mattson M P, Akbari Y, LaFerla F M: Triple-transgenic model of Alzheimer's disease with plaques and tangles: intracellular Abeta and synaptic dysfunction. Neuron 2003, 39(3):409-421]. Experimental procedures for handling the mice were in accordance with the guidelines of the Institutional Animal Care and Use Committee (IACUC) of NCKU. The mice were housed in a room maintained on a 12-h light-dark cycle and fed ad libitum. […] These mice developed plaque and tangle pathology. Aβ deposition as progressive deposition appeared as early as six months.
(§2) Mice were anesthetized and euthanized with 10% chloral hydrate (400 mg/kg, i.p.) and then transcardial perfusion was performed with 0.01 M PBS (pH 7.4). The brains were post-fixed in 4% PFA for 2 days and dehydrated with 30% sucrose at 4° C. The hydrated brain was embedded with optimal cutting temperature compound (OCT, Leica) and quick-frozen at −30° C. The blocks were sectioned at 16 um-thick. Slices were stored at −20° C. […] The images were captured by TissureFAXS microscopy system and positive signals were quantified by TissueQuest software module (TissueGnostic, Vienne, Austria).

For another test, the system named is APP. Put plainly: Western blotting of APP in Huh-7 cells. The test is classed as cell-based, human. As to conditions: 24 h treatment, Western blotting (FIG. 1). (In western blotting, separated proteins are transferred to a membrane and probed.)
In test [2] the test system is Aβ levels in the brain of 3×Tg AD transgenic mice. Put plainly: Aβ immunofluorescence staining of brain sections of 3×Tg-AD transgenic mice. Format: in vivo. As to conditions: six-month-old 3×Tg AD mice fed 150 mg/kg for four months, immunofluorescence (FIG. 4).
Description: as §1, §2

The next test concerns ApoE promoter. In words: ApoE promoter luciferase reporter assay in Huh-7 cells. As to conditions: for luciferase activity of ApoE promoter: Huh-7, serial truncations of ApoE promoter from -1061/+45 to -154/+45, 24 h (FIG. 3C). The test is classed as cell-based, human. The source says: The promoter region of human APOE gene has been identified and published [[…]]. We constructed ApoE promoter region from -1061 +45 in two-steps. The first fragment was amplified using polymerase chain reaction (PCR) by forward primer APOE-[…] ID NO: 1) paired with reverse primer APOE-R-BglII: [NT] ID NO: 2) and was ligated to the pGL3 basic vector (Promega, Madison, Wis., USA) by using Kpn I and Bgl II restriction sites. The second fragment was amplified using PCR by forward primer APOE-F-BglII: [NT] ID NO: 3) paired with reverse primer APOE-[…] ID NO: 4) and was ligated to the pGL3-basic (Promega) by using Bgl II and Hind III restriction sites. The serial deletion mutants of ApoE promoter, -705/+45, -456/+45, -344/+45, -247/+45, -154/+45 and -32/+45 were amplified using PCR and based on the full-length ApoE promoter (-1061/+45). The generated fragments were digested by Kpn I and Xba I and then inserted into the pGL3-basic vector (Promega). To generate the deletion mutants of ApoE promoter, primers were used to amplify the promoter for different lengths. The forward primers were APOE-705-[…] ID NO: 5), APOE-456-[…] ID NO: 6), APOE-344-[…] ID NO: 7), APOE-247-[…] ID NO: 8), APOE-154-[…] ID NO: 9), and APOE-32-[…] ID NO: 10) which were paired with reverse primer APOE-[…] ID NO: 4) to amplify the target region of the promoter. For disrupting the binding sites of PPAR and/or AP-2 on ApoE promoter, we conducted the point mutation method and the primers paired used were as follows: -154[…] ID NO: 11) paired with -154[…] ID NO: 12), -154[…] ID NO: 13) paired with -154[…] ID NO: 14), -154[…] ID NO: 15) paired with -154[…] ID NO: 16), -154[…] ID NO: 17) paired with -154[…] ID NO: 18). The pGL3-154/+45-ApoE-Luc was used as the template for PCR reaction to amplify the mutant of PPAR or AP-2 binding sites in the ApoE promoter. The PCR products were digested by Dpn I and transformed into TOP10 competent cells (Invitrogen, Carlsbad, Calif., USA). After LB plating and extraction of plasmids, positive colonies were confirmed by restriction enzyme digestion. All of the promoter constructs were verified by sequencing. The Huh-7 cells were seeded in 24-well culture plates and then co-transfected with serial deletion of pGL3-ApoE-Luc (firefly luciferase) with pRL-TK renilla luciferase reporter. Following overnight incubation, the transfected cells were treated with traditional curcumin, and TML-6 for an additional 24h. […] The relative luciferase units (RLU) were measured using a luminometer (GLOMAX Multi, Promega). […] The RLUs are expressed as means plus standard deviation of three independent experiments.
On the technique in general: In a reporter assay the amount or activity of a reporter protein is the signal.

Another test relates to ApoE. Put plainly: Western blotting of ApoE in Huh-7 cells. The test is classed as cell-based, human. The note with it: 24 h treatment, Western blotting (FIG. 1). As for the experimental part: (§3) The human hepatoma Huh-7 cell lines were obtained from the Health Science Research Resources Bank (JCRB0403; Osaka, Japan) and were cultured in Dulbecco's modified Eagle's medium (DMEM, Gibco) supplemented with 100 U/ml penicillin, […] streptomycin and 10% fetal bovine serum (FBS, Biological industry). Cells were cultured at 37° C. in a humidified atmosphere of 5% CO2 incubator (Forma Scientific, Marietta, Ohio, USA). The cells were seeded in 24-well, 6 or 10 cm dishes overnight the day before the experiment. On the next day, the cells were treated with curcumin (Sigma) and TML-6. The stock concentration was prepared at 5 mg/mL (for curcumin) and 10 mM (for TML-6).
(§4) After cells were seeded and treated with curcumin and its derivatives for 24h, cells were washed with ice-cold PBS and lysed with 100 μL of RIPA lysis buffer (Pierce Biotechnology, Rockford, Ill., USA) supplemented with protease and phosphatase inhibitors (Roche Diagnostics, Mannheim, Germany). Cell lysates were further cleaned by centrifugation at 14000 rpm 4° C. for 15 min. Protein concentration was determined using a Bradford assay (Bio-Rad, Hercules, Calif., USA). For western blot analysis, 20 μg of each sample was prepared for SDS-PAGE and denatured at 95° C. for 10 min. […]

The subject of test [3] is Aβ production in N2a/APPswe cells. Put plainly: Amyloid β ELISA of culture medium of N2a/APPswe stable cell line. Format: cell-based. The note with it: 24 h incubation, ELISA (FIG. 2). As for the experimental part:
Extracellular levels of soluble Aβ40 and Aβ42 were determined by LEGEND MAX™ 3-Amyloid x-40 and X-42 ELISA Kit (Biolegend). N2A neuroblastoma cell line with stably over expressing APP Swedish mutation (APPswe) was designed as N2A/APPswe cell line (kindly grafted from Prof. Kuo, Yu-Min's Lab). 8×10^5 N2A/APPswe cells were seeded on a 6-cm dish. After overnight incubation, the cells were treated with curcumin or TML-6 for 24 h. The culture supernatant was collected and centrifuged at 1,500×g at 4° C. for 5 min to remove cells. The Aβ levels of the culture supernatants of various treatments were assayed according to the manufacture's instrumentations. The samples were detected at OD620 and the calculation of Aβ levels was based on the standard curves of Aβ40 and Aβ42, respectively.
(ELISA stands for enzyme-linked immunosorbent assay.)

The next test deals with phospho-NF-κB. Put plainly: Western blotting of phospho-NF-κB in Huh-7 cells. The test is classed as cell-based, human. As to conditions: 24 h treatment, Western blotting (FIG. 1). How it is done: as §3, §4
The next test relates to soluble Aβ. The note with it: AD transgenic mouse, within hours, ApoE-dependent; cited from earlier work.

With `CCN(CC)C(=O)CC(C)(C(=O)/C=C/c1ccc(OC)c(OC)c1)C(=O)/C=C/c1ccc(OC)c(OC)c1` [TML-6], the “expression of Iba-1 (brain inflammation)” value in test [1] is “significantly better activity than curcumin; also recorded: significantly inhibited”. Besides, the “protein expression level of APP” value in the test with APP was “decreased in a dose-dependent manner”. Further, the “Aβ levels in the brain” value in test [2] is “significantly better activity than curcumin; also recorded: significantly decrease”. Further, the “ApoE promoter activity after disruption of proximal PPARα/RXRα and AP2 binding sites” value in the test with ApoE promoter (Huh-7, -154/+45 mutants MdelAP2 and MdelPPAR, 24 h (FIG. 3E)) is reported as “significantly suppressed”. Also, the “luciferase activity of ApoE promoter” value in the test with ApoE promoter is given as “gradually increases”. In addition, the “promoter activity of ApoE-154MdelAP2/+45 mutant compared with wild-type -154/+45” value in the test with ApoE promoter (Huh-7, siRNA knockdown experiment, 24 h (FIG. 3F)) is given as “suppressed”. Further, the “protein expression level of Apo E” value in the test on ApoE is recorded as “significantly increased”. In test [3], the Aβ42/40 ratio result was “significantly suppresses”, the “production of Aβ40” value was “significantly suppresses” and the “production of Aβ42” value is listed as “significantly suppresses”. In the test with phospho-NF-κB, the “protein expression level of phospho-NF-κB” value is “decreased in a dose-dependent manner”.
On to `C=C(c1ccc(C(=O)O)cc1)c1cc2c(cc1C)C(C)(C)CCC2(C)C` [bexarotene], for which, in the test with soluble Aβ, the “clearance of soluble Aβ” value was “enhanced clearance”.
Regarding `COc1cc(/C=C/C(=O)CC(=O)/C=C/c2ccc(O)c(OC)c2)ccc1O` [curcumin, diferuloyl methane], in the test with APP, the “protein expression level of APP” value was “inhibit the APP synthesis”. Moreover, the “luciferase activity of ApoE promoter” value in the test on ApoE promoter was “gradually increases”. For the same molecule, the “protein expression level of Apo E” value with ApoE is listed as “upregulate ApoE”. Further, the “protein expression level of phospho-NF-κB” value in the test on phospho-NF-κB was “inhibit NFκB”.
